Assay results: patent EP1422230B1 (priority 2002, dated 2004)
Counter-ions that a name gives are not always drawn. Like-named read-outs stand apart in the source and are kept apart here.

Assays:
[1] = test system: rats; parameters: species or system male Sprague-Dawley rats; conditions: rat, in vivo
[2] = intramuscular injection or intravenous injection; cited from earlier work
[3] = cited from earlier work; for Plasma concentrations: intravenous about 0.3 mg
[4] = parenteral, on a weight basis; cited from earlier work
[5] = intravenous, single dose of about 0.3 mg

Compound | Analgesic duration ([1]; HCl) | duration of analgesic action ([1]; HCl) | duration of action [2] | Cmax ([3]; 0.4 mg sublingual dose) | Tmax ([3]; 0.4 mg sublingual dose) | systemic availability ([3]; 0.4 mg sublingual dose) | Total plasma clearance ([3]; conscious postoperative patients) | mean peak plasma buprenorphine concentrations ([3]; intramuscular second 0.3-mg dose 3 hours after the initial intravenous dose) | plasma buprenorphine concentrations ([3]; intramuscular second 0.3-mg dose, after about 3 hours) | Plasma concentrations ([3]; after about 5 minutes) | Plasma concentrations ([3]; after about 3 hours) | mean peak plasma drug concentrations [3, 5] | time of mean peak plasma drug concentrations [3, 5] | analgesic potency, times as that of meperidine [4] | analgesic potency, times as that of pentazocine [4] | duration of analgesic action [1] | duration of action ([1]; sc)
CO[C@]12CC[C@@]3(C[C@@H]1[C@](C)(O)C(C)(C)C)[C@H]1Cc4ccc(O)c5c4[C@@]3(CCN1CC1CC1)[C@H]2O5 [Buprenorphine HCl] | 5 h | 3 to 5 h |  |  |  |  |  |  |  |  |  |  |  |  |  |  | 
CO[C@]12CC[C@@]3(C[C@@H]1[C@](C)(O)C(C)(C)C)[C@H]1Cc4ccc(O)c5c4[C@@]3(CCN1CC1CC1)[C@H]2O5 [Buprenorphine base, (5α, 7α (S)-17-cyclopropyl-methyl)-α -(1,1-dimethylethyl)-4,5-epoxy-18,19-dihydro-3-hydroxy-6-methoxy-α -methyl-6,14-ethenomorphinan-7-methanol] |  |  | 6 to 8 h | 0.5 ± 0.06 ng/mL | 3.5 ± 0.667 h | 57.7±6% | approximately 0.28 L/minute | about 3.6 ng/mL | about 0.4 ng/mL | about 9 ng/mL | about 0 .4 ng/mL | about 18 ng/mL | ≤ 2 min | about 600 times | about 200 times | 48 to 50 h | 48 to 50 h
